According to ChEMBL document CHEMBL4507272 (2021):

Experiments:
[1] = target: Tyrosine-protein kinase receptor Tie-1 (Homo sapiens) (UniProt P35590); details: Compound concentration 1000.0 nM
[2] = target: Tyrosine-protein kinase ABL1 (Homo sapiens) (UniProt P00519); details: Compound concentration 1000.0 nM
[3] = target: Rho-associated protein kinase 1 (Homo sapiens) (UniProt Q13464); details: Compound concentration 1000.0 nM
[4] = target: Ephrin type-B receptor 6 (Homo sapiens) (UniProt O15197); details: Compound concentration 1000.0 nM
[5] = target: RAC-gamma serine/threonine-protein kinase (Homo sapiens) (UniProt Q9Y243); details: Compound concentration 1000.0 nM
[6] = target: Aurora kinase B (Homo sapiens) (UniProt Q96GD4); details: Compound concentration 1000.0 nM
[7] = target: Leukocyte tyrosine kinase receptor (Homo sapiens) (UniProt P29376); details: Compound concentration 1000.0 nM
[8] = test system: Receptor-type tyrosine-protein kinase FLT3 (Homo sapiens), P36888 [R834Q]; details: Compound concentration 1000.0 nM
[9] = target: Alpha-2B adrenergic receptor (Homo sapiens) (UniProt P18089); details: Compound concentration 10.0 uM
[10] = target: TRAF2 and NCK-interacting protein kinase (Homo sapiens) (UniProt Q9UKE5); details: Compound concentration 1000.0 nM
[11] = target: Cyclin-dependent kinase 17 (Homo sapiens) (UniProt Q00537); details: Compound concentration 1000.0 nM
[12] = target: Serine/threonine-protein kinase D3 (Homo sapiens) (UniProt O94806); details: Compound concentration 1000.0 nM
[13] = target: Insulin-like growth factor 1 receptor (Homo sapiens) (UniProt P08069); details: Compound concentration 1000.0 nM
[14] = target: 5-hydroxytryptamine receptor 2B (Homo sapiens) (UniProt P41595); details: Compound concentration 10.0 uM
[15] = target: MAP kinase-interacting serine/threonine-protein kinase 2 (Homo sapiens) (UniProt Q9HBH9); details: Compound concentration 1000.0 nM
[16] = target: Leucine-rich repeat serine/threonine-protein kinase 2 (Homo sapiens) (UniProt Q5S007); details: Compound concentration 1000.0 nM
[17] = target: Beta-3 adrenergic receptor (Homo sapiens) (UniProt P13945); details: Compound concentration 10.0 uM
[18] = target: SRSF protein kinase 2 (Homo sapiens) (UniProt P78362); details: Compound concentration 1000.0 nM
[19] = target: Fibroblast growth factor receptor 3 (Homo sapiens) (UniProt P22607); details: Compound concentration 1000.0 nM
[20] = target: Cyclin-dependent kinase 2 (Homo sapiens) (UniProt P24941); details: Compound concentration 1000.0 nM
[21] = target: Beta-2 adrenergic receptor (Homo sapiens) (UniProt P07550); details: Compound concentration 10.0 uM
[22] = test system: Tyrosine-protein kinase ABL1 (Homo sapiens), P00519 [Q252H]; details: Compound concentration 1000.0 nM
[23] = target: AP2-associated protein kinase 1 (Homo sapiens) (UniProt Q2M2I8); details: Compound concentration 1000.0 nM
[24] = target: Serine/threonine-protein kinase DCLK1 (Homo sapiens) (UniProt O15075); details: Compound concentration 1000.0 nM
[25] = target: Serine/threonine-protein kinase PknB (Mycobacterium tuberculosis) (UniProt P9WI81); details: Compound concentration 1000.0 nM
[26] = target: Serine/threonine-protein kinase RIO2 (Homo sapiens) (UniProt Q9BVS4); details: Compound concentration 1000.0 nM
[27] = target: Ribosomal protein S6 kinase alpha-3 (Homo sapiens) (UniProt P51812); details: Compound concentration 1000.0 nM
Chain of Ribosomal protein S6 kinase alpha-3 (Homo sapiens) (P51812 whole entry): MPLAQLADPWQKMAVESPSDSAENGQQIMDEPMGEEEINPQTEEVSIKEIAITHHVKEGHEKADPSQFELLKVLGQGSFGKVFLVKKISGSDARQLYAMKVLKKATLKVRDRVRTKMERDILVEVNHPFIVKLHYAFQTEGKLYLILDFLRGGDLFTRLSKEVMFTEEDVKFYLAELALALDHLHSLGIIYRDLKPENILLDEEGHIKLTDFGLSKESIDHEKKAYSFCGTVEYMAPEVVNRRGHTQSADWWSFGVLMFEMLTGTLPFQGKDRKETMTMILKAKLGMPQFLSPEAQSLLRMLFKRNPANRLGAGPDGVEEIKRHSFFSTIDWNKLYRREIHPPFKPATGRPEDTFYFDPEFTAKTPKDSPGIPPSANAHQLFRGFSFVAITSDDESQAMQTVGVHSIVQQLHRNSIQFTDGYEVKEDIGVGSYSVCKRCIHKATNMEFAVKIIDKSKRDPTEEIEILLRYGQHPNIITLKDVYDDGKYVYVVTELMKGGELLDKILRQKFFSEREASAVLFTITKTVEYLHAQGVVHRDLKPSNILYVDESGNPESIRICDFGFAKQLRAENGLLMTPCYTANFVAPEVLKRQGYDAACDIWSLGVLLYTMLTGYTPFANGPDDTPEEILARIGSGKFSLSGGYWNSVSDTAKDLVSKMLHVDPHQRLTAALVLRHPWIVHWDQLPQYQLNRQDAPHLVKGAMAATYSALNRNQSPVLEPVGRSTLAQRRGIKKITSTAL

[28] = target: Cyclin-dependent kinase 19 (Homo sapiens) (UniProt Q9BWU1); details: Compound concentration 1000.0 nM
[29] = target: Tyrosine-protein kinase Tec (Homo sapiens) (UniProt P42680); details: Compound concentration 1000.0 nM
[30] = target: Tyrosine-protein kinase Mer (Homo sapiens) (UniProt Q12866); details: Compound concentration 1000.0 nM
[31] = target: Receptor tyrosine-protein kinase erbB-3 (Homo sapiens) (UniProt P21860); details: Compound concentration 1000.0 nM
Chain of Receptor tyrosine-protein kinase erbB-3 (Homo sapiens) (P21860 whole entry): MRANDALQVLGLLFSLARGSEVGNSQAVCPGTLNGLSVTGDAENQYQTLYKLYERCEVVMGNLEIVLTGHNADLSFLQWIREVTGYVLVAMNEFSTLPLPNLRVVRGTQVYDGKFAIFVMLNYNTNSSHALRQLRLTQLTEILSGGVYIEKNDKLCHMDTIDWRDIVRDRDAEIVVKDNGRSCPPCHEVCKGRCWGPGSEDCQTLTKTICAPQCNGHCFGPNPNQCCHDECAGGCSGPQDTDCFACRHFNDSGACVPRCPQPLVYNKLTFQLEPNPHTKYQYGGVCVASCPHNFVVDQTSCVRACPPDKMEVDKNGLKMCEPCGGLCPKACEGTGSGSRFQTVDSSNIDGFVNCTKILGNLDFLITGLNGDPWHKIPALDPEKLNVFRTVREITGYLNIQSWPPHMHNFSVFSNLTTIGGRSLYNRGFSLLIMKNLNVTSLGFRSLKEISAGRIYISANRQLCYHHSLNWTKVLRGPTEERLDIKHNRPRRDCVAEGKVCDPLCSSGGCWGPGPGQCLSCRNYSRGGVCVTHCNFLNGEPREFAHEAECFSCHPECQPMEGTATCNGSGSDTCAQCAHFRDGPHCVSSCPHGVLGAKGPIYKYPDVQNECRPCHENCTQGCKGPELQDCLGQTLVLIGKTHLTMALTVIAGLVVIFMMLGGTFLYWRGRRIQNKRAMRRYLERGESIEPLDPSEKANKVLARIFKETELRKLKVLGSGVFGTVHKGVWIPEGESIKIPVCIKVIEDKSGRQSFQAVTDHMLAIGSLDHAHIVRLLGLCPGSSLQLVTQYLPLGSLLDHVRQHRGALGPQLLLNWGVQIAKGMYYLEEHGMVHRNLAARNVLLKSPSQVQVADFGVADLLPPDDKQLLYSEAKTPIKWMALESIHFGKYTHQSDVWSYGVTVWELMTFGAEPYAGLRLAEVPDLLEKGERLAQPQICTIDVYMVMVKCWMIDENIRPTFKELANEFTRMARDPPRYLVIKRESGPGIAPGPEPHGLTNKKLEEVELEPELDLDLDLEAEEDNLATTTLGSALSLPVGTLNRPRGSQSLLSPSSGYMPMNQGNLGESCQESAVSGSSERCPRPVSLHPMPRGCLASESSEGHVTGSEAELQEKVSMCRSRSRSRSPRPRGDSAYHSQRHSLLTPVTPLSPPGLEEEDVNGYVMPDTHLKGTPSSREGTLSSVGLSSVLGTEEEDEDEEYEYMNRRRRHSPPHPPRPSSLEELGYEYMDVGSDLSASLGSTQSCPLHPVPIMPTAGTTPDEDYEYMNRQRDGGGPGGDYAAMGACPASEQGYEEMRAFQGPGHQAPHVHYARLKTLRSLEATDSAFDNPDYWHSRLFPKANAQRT

[32] = test system: Serine/threonine-protein kinase B-raf (Homo sapiens), P15056 [V600E]; details: Compound concentration 1000.0 nM
[33] = test system: Phosphatidylinositol 4,5-bisphosphate 3-kinase catalytic subunit alpha isoform (Homo sapiens), P42336 [Q546K]; details: Compound concentration 1000.0 nM
[34] = target: Cyclin-dependent kinase 4 (Homo sapiens) (UniProt P11802); details: Compound concentration 1000.0 nM
[35] = target: 5-hydroxytryptamine receptor 1E (Homo sapiens) (UniProt P28566); details: Compound concentration 10.0 uM
[36] = target: Mitogen-activated protein kinase kinase kinase 20 (Homo sapiens) (UniProt Q9NYL2); details: Compound concentration 1000.0 nM
[37] = test system: Epidermal growth factor receptor (Homo sapiens), P00533 [UNDEFINED MUTATION]; details: Compound concentration 1000.0 nM
Chain of Epidermal growth factor receptor (Homo sapiens), P00533 [UNDEFINED MUTATION] (P00533 whole entry, looked up, change not shown): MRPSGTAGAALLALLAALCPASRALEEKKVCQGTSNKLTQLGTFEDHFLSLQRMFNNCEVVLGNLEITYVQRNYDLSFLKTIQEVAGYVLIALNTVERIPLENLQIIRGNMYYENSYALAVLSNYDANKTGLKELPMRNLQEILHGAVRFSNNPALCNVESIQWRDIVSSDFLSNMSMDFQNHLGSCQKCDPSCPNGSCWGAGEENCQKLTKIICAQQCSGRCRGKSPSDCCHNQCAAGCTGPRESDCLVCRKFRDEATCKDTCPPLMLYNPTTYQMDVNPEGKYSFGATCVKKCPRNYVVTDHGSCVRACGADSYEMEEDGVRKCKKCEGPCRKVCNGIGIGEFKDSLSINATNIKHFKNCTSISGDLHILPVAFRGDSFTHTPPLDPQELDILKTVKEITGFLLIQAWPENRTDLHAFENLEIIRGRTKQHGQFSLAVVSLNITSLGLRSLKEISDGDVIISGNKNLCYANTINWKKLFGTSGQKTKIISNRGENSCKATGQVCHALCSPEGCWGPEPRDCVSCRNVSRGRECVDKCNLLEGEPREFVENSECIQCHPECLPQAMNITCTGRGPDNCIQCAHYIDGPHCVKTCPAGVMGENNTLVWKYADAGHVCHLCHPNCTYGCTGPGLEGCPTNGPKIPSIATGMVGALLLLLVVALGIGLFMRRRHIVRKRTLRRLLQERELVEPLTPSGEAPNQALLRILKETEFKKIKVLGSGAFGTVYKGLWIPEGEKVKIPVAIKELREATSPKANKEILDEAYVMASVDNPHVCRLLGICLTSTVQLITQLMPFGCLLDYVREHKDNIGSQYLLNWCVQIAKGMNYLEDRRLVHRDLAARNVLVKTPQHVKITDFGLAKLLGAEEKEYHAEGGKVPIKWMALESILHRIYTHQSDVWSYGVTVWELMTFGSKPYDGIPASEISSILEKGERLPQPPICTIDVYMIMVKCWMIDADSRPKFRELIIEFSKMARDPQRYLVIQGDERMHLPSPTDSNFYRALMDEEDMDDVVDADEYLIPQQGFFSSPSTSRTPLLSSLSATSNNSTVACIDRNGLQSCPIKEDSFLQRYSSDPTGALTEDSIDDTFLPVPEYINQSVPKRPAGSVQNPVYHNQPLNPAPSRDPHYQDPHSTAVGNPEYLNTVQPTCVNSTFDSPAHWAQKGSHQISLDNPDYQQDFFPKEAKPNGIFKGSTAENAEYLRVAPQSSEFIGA

[38] = target: Serine/threonine-protein kinase 17B (Homo sapiens) (UniProt O94768); details: Compound concentration 1000.0 nM
[39] = target: Serine/threonine-protein kinase ULK3 (Homo sapiens) (UniProt Q6PHR2); details: Compound concentration 1000.0 nM
[40] = target: Mitogen-activated protein kinase kinase kinase 3 (Homo sapiens) (UniProt Q99759); details: Compound concentration 1000.0 nM
[41] = target: Tyrosine-protein kinase receptor UFO (Homo sapiens) (UniProt P30530); details: Compound concentration 1000.0 nM
[42] = target: Serine/threonine-protein kinase Sgk2 (Homo sapiens) (UniProt Q9HBY8); details: Compound concentration 1000.0 nM
[43] = target: Muscarinic acetylcholine receptor M3 (Homo sapiens) (UniProt P20309); details: Compound concentration 10.0 uM
Chain of Muscarinic acetylcholine receptor M3 (Homo sapiens) (P20309 whole entry, looked up): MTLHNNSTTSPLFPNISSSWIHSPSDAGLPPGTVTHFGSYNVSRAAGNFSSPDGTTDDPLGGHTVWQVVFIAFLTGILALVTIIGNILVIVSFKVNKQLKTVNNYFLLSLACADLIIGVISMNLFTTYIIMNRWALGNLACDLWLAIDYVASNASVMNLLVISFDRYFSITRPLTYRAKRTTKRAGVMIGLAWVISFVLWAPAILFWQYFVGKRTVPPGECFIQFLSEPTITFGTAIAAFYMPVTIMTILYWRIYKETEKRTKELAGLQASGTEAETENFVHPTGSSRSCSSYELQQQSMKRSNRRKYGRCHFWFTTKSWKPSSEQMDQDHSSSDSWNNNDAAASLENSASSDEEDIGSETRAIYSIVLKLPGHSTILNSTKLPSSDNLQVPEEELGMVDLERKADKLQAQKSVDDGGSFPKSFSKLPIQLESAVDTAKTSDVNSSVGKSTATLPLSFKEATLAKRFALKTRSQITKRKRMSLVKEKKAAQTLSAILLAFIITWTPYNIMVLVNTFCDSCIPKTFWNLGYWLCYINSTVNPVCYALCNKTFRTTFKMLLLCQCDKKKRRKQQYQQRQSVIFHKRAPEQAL

[44] = target: Serine/threonine-protein kinase PAK 4 (Homo sapiens) (UniProt O96013); details: Compound concentration 1000.0 nM
[45] = target: Serine/threonine-protein kinase PAK 1 (Homo sapiens) (UniProt Q13153); details: Compound concentration 1000.0 nM

Chain of Tyrosine-protein kinase receptor Tie-1 (Homo sapiens) (P35590 whole entry): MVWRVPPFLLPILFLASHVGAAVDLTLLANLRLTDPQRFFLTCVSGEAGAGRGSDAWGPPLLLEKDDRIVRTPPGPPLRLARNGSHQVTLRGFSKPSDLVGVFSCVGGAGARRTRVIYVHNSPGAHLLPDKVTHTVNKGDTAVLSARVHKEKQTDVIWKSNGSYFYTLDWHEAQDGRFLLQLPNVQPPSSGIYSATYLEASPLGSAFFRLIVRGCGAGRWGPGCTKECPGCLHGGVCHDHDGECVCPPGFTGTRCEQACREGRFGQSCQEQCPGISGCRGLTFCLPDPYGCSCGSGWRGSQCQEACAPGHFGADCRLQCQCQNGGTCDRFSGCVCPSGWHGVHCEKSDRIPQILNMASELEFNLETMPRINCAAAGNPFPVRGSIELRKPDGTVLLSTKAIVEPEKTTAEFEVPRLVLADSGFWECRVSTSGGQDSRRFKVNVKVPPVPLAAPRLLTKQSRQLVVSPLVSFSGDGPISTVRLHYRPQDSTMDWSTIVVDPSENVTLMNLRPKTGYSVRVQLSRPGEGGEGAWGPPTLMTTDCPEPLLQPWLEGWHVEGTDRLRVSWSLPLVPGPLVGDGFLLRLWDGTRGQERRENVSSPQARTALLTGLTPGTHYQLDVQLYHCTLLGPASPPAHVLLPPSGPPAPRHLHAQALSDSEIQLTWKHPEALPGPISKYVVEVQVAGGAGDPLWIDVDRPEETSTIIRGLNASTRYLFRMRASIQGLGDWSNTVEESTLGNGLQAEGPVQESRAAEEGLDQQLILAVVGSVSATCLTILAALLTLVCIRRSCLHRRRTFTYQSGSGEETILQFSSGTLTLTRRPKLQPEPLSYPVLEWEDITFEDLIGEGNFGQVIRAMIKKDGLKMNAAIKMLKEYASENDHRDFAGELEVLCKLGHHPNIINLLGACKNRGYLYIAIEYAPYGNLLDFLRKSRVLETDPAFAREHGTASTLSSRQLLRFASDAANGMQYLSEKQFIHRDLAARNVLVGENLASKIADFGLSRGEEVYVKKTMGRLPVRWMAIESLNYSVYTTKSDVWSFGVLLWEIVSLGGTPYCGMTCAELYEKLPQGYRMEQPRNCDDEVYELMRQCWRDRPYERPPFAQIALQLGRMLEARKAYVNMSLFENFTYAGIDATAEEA

CC(=O)C1=C(C)N(c2cccc(C(F)(F)F)c2)C(=O)N[C@@H]1c1ccc(C#N)nc1 [BAY-678]
inactive: residual activity [1] 89.9% | residual activity [2] 96.5% | residual activity [3] 100% | residual activity [4] 85% | residual activity [5] 90.6% | residual activity [6] 100% | residual activity [7] 92.6% | residual activity [8] 83.6% | inhibition [9] -1.73% | residual activity [10] 90.8% | residual activity [11] 100% | residual activity [12] 78% | residual activity [13] 100% | inhibition [14] 6.06% | residual activity [15] 84.8% | residual activity [16] 80.7% | inhibition [17] -0.551% | residual activity [18] 100% | residual activity [19] 96.4% | residual activity [20] 100% | inhibition [21] 24.3% | residual activity [22] 94.3% | residual activity [23] 100% | residual activity [24] 85.1% | residual activity [25] 82.7% | residual activity [26] 98% | residual activity [27] 99.2% | residual activity [28] 96.9% | residual activity [29] 100% | residual activity [30] 100% | residual activity [31] 100% | residual activity [32] 100% | residual activity [33] 100% | residual activity [34] 100% | inhibition [35] 7.74% | residual activity [36] 96.9% | residual activity [37] 100% | residual activity [38] 100% | residual activity [39] 100% | residual activity [40] 100% | residual activity [41] 100% | residual activity [42] 100% | inhibition [43] 10.4% | residual activity [44] 97.9% | residual activity [45] 91.2%
